# Activity calls are given as the source filed them.
# Legend:
# [1] = biological target: T1, Calpain-2 catalytic subunit (Sus scrofa, UniProt P43367); test: pig calpain II inhibitor potency, dose response, biochemical, fluorogenic peptide substrate (AID 1420); assay type: functional
# T1 sequence (P43367 whole entry): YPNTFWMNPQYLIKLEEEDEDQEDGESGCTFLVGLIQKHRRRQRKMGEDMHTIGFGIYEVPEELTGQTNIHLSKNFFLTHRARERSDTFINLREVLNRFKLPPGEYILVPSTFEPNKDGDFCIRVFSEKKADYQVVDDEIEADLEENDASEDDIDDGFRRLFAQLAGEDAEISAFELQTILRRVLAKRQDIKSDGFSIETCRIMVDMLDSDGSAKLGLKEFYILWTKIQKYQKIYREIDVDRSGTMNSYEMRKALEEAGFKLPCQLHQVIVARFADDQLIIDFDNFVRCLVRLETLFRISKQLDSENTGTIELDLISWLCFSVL
# [2] = biological target: Heat shock protein HSP 90-alpha (Homo sapiens, UniProt P07900); assay type: functional, organism-based
# [3] = HIV-1 Env-mediated cell fusion inhibitors, dose response, CCR5-tropic Env (AID 2279); assay type: functional
# [4] = biological target: Eukaryotic translation initiation factor 4E (Mus musculus, UniProt P63073); test: eIF4E–eIF4G protein interaction inhibitors, dose response, biochemical, TR-FRET (AID 855); assay type: functional;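 note: potency for disrupting eIF4E binding to eIF4GI seen as loss of FRET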
# Eukaryotic translation initiation factor 4E, sequence (P63073 whole entry): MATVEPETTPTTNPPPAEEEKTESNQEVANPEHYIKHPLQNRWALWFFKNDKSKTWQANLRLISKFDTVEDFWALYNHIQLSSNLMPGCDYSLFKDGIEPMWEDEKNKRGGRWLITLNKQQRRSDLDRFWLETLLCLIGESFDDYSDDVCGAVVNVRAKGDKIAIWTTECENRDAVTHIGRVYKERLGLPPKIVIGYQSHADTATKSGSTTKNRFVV
# [5] = growth suppression of PTEN-null colon cells, dose response, cell-based, HCT116 PTEN knockout (AID 1047); assay type: functional;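 note: HCT116 colon tumor cells with PTEN knocked out; cells exposed to compound for 60 hours before readout; potency for loss of cell viability measured by luminescence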
# [6] = biological target: Protein-tyrosine kinase 2-beta (Homo sapiens, UniProt Q14289);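 note: potency of inhibitors of PYK2 kinase phosphorylation of poly-GT substrate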
# Protein-tyrosine kinase 2-beta, sequence (Q14289 whole entry): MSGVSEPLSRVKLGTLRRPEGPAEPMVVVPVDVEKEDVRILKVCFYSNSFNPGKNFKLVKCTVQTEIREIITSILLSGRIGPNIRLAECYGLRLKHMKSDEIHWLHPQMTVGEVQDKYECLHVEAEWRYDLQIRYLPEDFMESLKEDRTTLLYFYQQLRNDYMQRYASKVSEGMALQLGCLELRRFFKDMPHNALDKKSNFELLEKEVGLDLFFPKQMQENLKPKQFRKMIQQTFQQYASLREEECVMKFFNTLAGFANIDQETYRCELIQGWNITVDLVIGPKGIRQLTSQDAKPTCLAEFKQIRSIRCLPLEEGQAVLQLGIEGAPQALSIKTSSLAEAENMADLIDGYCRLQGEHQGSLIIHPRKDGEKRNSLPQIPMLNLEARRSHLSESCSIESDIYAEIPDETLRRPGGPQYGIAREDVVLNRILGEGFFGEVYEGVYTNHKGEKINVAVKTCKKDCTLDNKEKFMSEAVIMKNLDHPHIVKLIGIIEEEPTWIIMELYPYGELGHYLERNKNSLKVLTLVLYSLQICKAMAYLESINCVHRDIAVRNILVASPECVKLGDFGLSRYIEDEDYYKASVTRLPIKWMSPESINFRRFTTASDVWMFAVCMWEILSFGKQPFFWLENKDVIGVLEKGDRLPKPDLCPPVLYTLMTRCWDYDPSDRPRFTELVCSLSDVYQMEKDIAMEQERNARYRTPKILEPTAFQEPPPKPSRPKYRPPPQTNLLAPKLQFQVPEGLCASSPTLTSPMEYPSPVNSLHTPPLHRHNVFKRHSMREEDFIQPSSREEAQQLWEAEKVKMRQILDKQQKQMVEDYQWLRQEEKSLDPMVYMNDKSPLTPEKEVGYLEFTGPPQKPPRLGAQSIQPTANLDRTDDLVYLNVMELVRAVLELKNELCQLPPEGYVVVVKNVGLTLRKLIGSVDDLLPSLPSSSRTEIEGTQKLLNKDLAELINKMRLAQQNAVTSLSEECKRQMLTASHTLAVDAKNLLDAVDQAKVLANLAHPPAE
# [7] = growth suppression of beta-catenin-knockout colon cells, dose response, cell-based, HCT116, human colon tumor (AID 1045); assay type: functional;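 note: HCT116 colon tumor cells with beta catenin knocked out; cells exposed to compound for 60 hours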
# H4 = test: Luminescence Cell-Based Dose Response HTS to Identify Activators of 5'UTR Stem-Loop Driven Prion Protein mRNA Translation in H4 Neuroglioblastoma Cells. [Related pubchem assays: 1829 (Project Summary), 1814 (Primary HTS)]; assay type: functional; conditions: Homo sapiens
# [8] = Luminescence Cell-Based Dose Confirmation to Identify Activators of 5'UTR Stem-Loop Driven Alpha-Synuclein mRNA Translation in H4 Neuroglioblastoma Cells. [Related pubchem assays: 1829 (Project Summary), 1814 (Primary HTS)]; assay type: functional
# [9] = Luminescence Cell-Based Dose Response to Identify Activators of 5'UTR Stem-Loop Driven Prion Protein mRNA Translation in H4-C Neuroglioblastoma Cells. [Related pubchem assays: 1829 (Project Summary), 1814 (Primary HTS)]; assay type: functional
# [10] = Luminescence Cell-Based Dose Response to Identify Activators of Luciferase Translation or Activity in H4-C Neuroglioblastoma Cells. [Related pubchem assays: 1829 (Project Summary), 1814 (Primary HTS)]; assay type: functional
# [11] = Luminescence Cell-Based Dose Response HTS to Identify Activators of Luciferase Translation or Activity in H4 […] Cells. [Related pubchem assays: 1829 (Project Summary), 1814 (Primary HTS)]; assay type: functional
# Estrogen receptor = biological target: T2, Estrogen receptor (Homo sapiens, UniProt P03372);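 note: potency for inhibiting coactivator peptide recruitment to the receptor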
# T2 sequence (P03372 whole entry): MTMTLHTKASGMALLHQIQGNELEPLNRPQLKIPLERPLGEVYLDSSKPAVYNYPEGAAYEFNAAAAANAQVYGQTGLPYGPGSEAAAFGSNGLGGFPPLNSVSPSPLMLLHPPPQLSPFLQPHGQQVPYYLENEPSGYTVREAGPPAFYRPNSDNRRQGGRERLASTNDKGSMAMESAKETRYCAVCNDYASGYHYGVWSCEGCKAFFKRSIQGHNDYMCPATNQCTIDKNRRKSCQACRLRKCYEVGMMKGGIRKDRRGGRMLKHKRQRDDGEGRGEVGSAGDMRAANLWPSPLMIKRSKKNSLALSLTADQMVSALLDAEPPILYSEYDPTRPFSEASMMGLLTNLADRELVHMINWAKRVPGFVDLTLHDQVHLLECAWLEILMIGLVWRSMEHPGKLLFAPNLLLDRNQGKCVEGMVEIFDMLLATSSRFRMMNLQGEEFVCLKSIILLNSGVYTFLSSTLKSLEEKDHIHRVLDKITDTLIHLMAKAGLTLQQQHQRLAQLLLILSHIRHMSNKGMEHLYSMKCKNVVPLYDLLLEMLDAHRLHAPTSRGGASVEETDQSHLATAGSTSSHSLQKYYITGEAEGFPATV
# [12] = cytotoxicity in KRAS-transformed pancreatic duct cells, primary screen, cell-based, fluorescence, HTS (AID 431); assay type: functional; conditions: Homo sapiens;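 note: cell line used: HPDE-C7K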
# [13] = cytotoxicity in HPDE-C7 cells, cell-based, fluorescence, HTS (AID 430); assay type: functional; conditions: Homo sapiens
# [14] = biological target: T3, Endoribonuclease toxin MazF (Escherichia coli K-12, UniProt P0AE70); test: fluorescent RNA oligo signal without MazF, dose response, counter-screen for MazEF activator project, biochemical, fluorescence, single-stranded RNase substrate (AID 588502); assay type: functional
# T3 sequence (P0AE70 whole entry): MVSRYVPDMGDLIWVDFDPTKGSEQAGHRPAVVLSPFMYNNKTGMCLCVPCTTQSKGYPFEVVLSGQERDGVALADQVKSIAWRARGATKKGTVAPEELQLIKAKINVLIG
# [15] = biological target: T3, Endoribonuclease toxin MazF; test: MazF toxin RNase activators, dose response, biochemical, fluorescence, single-stranded RNA substrate, uHTS hits (AID 588481); assay type: functional
# [16] = biological target: T4, Low molecular weight phosphotyrosine protein phosphatase (Homo sapiens, UniProt P24666); assay type: functional; conditions: read-out: IC50_Mean
# T4 sequence (P24666 whole entry): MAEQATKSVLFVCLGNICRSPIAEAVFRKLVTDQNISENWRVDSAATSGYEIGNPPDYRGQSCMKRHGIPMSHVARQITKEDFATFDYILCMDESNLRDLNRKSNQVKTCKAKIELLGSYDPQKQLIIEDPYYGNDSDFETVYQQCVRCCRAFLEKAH
# [17] = biological target: T4, Low molecular weight phosphotyrosine protein phosphatase; assay type: functional; conditions: read-out: IC50_Mean; remark: listed apart in the source
# [18] = biological target: DNA dC->dU-editing enzyme APOBEC-3G (Homo sapiens, UniProt Q9HC16); test: Dose Response confirmation of small molecule APOBEC3G DNA Deaminase Inhibitors via a fluorescence-based single-stranded DNA deaminase assay. [Related pubchem assays (depositor defined):AID493012, AID493028]; assay type: functional
# DNA dC->dU-editing enzyme APOBEC-3G, sequence (Q9HC16 whole entry, the tested form may be a part): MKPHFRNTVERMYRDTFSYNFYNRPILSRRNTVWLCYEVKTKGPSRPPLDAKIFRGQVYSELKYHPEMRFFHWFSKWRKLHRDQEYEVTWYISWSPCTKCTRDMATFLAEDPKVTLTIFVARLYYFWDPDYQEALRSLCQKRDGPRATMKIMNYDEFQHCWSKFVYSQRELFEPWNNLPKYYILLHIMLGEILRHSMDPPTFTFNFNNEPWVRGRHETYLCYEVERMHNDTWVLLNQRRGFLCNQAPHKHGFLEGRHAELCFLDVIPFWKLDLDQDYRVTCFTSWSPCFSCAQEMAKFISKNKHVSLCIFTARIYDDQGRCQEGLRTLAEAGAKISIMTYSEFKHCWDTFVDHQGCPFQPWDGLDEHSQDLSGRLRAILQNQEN
# [19] = biological target: T5, Carboxy-terminal domain RNA polymerase II polypeptide A small phosphatase 1 (Homo sapiens, UniProt Q9GZU7); test: inhibitors of CTDSP1, concentration-response testing, biochemical assay, absorbance-based, actives from ultra-high-throughput screening (AID 540297); assay type: functional
# T5 sequence (Q9GZU7 whole entry): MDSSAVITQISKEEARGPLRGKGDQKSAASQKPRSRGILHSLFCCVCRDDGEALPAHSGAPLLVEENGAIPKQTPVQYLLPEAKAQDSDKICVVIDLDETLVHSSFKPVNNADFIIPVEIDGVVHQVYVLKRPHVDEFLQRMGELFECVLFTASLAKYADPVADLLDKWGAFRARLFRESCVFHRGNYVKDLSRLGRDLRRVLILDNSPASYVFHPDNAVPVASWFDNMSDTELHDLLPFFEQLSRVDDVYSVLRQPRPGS
# Protein Rev = biological target: T6, Protein Rev (Human immunodeficiency virus type 1 group M subtype B (isolate WMJ22)(HIV-1), UniProt P05866); test: HIV-1 Rev-RRE RNA binding disruptors, dose response, biochemical, protein-RNA interaction (AID 842); parameters: species or system Human immunodeficiency virus 1
# T6 sequence (P05866 whole entry): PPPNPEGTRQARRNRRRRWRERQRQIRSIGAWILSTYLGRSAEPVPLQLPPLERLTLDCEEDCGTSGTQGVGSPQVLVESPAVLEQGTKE
# [20] = inhibitors of intracellular T. cruzi replication, confirmation, NIH3T3 host cells, beta-gal luminescence (AID 2044); assay type: functional, cell-based;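 note: intracellular parasites grown in NIH/3T3 mouse fibroblasts as host cells; luminescent beta-galactosidase reporter signal from transgenic T. cruzi replicating inside host cells; inhibitors lower the luminescence signal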
# Vero = test: host cell cytotoxicity of antiviral hits, dose response, cytotoxicity control for West Nile virus antiviral project, secondary assay (AID 1650); assay type: functional; conditions: Chlorocebus sabaeus
# [21] = biological target: T7, High affinity choline transporter 1 (Homo sapiens, UniProt Q9GZV3); test: CHT inhibitors, dose response, cell-based, 5-point CRC, membrane potential dye (AID 504840); assay type: functional
# T7 sequence (Q9GZV3 whole entry): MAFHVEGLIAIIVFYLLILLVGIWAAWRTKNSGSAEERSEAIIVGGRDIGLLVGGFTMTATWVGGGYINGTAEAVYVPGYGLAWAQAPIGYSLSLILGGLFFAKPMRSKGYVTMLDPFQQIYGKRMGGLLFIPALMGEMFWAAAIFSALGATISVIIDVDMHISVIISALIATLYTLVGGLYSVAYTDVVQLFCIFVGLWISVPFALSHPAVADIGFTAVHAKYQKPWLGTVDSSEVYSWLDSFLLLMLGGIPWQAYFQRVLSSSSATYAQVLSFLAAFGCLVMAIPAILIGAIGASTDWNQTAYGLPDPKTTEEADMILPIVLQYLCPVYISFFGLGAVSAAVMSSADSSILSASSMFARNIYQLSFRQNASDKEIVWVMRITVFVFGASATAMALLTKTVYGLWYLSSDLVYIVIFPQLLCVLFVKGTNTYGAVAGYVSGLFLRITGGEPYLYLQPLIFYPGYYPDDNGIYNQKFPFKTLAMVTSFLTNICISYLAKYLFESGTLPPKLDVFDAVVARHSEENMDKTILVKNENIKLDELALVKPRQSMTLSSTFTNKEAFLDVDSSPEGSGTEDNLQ
structure (smiles),measurement,setting,value
CCCCCCCCCCCCCCCC[n+]1ccn(CC(C)=O)c1,IC50,[1],21.1 µM (not active)
same,AC50,[2],2.86 µM (active)
same,IC50,[3],4.25 µM (active)
same,IC50,[4],10.1 µM (active)
N#Cc1cccc(NC(=O)CSc2ccc3c4c(cccc24)C(=O)c2ccccc2-3)c1,EC50,[5],15.3 µM (active)
same,IC50,[6],4.87 µM (active)
same,EC50,[7],19.6 µM (active)
Cc1ccc(Sc2c(CO)c(-c3ccccc3)nn2C)cc1,EC50,H4,> 120 µM (not active)
same,EC50,[8],0.658 µM (inconclusive)
same,EC50,[9],1.37 µM (inconclusive)
same,EC50,[10],> 3.8 µM (not active)
same,EC50,[11],> 120 µM (not active)
O=C1CC(/C=C/c2ccco2)=Nc2ccccc2N1,IC50,Estrogen receptor,> 50 µM (not active)
CCN(CC)c1nc2ccccc2nc1C(C#N)C(=O)NCCc1ccccc1 (stereo not drawn),EC50,[12],> 20 µM (not active)
same,EC50,[13],> 20 µM (not active)
same,EC50,[14],> 99 µM (inactive)
same,EC50,[15],> 99 µM (inactive)
COC(=O)c1ccc(CSc2nc(C)nc3sc(C)c(C)c23)o1,IC50,Estrogen receptor,48.9 µM (not active)
Cc1ccc(C(=O)NNC(=O)CSc2n[nH]c3c4cc(F)ccc4nc-3n2)cc1,IC50,[16],17.5 µM (active)
same,IC50,[6],5.25 µM (active)
same,IC50,[17],14.6 µM (active)
same,IC50,[18],28.6 µM (active)
same,IC50,[19],5.22 µM (active)
same,IC50,Protein Rev,> 79.4 µM (not active)
CCCCN(CCCC)S(=O)(=O)c1ccc(NC(=O)c2ccc([N+](=O)[O-])cc2Cl)cc1,IC50,[1],1.42 µM (not active)
same,EC50,[20],0.798 µM (active)
same,CC50,Vero,10.1 µM (active)
same,IC50,[21],12.6 µM (active)
